This note sets out measurements from patent publication US20230391736A1, “3-TETRAZOLYLMETHYL-1,3,5-TRIAZIN-2,4-DIONE COMPOUND INHIBITING CORONAVIRUS 3CL PROTEASE ACTIVITY AND PREPARATION METHOD AND USE THEREOF” (priority 2022, published 2023).

One series has as its system A549 cells. The series is described as follows: In-vitro cytotoxicity by the MTT method, A549 cells. Particulars: 24 hrs. As to the method:
(§1) The in-vitro cytotoxicity of Compounds 1, 12, and 17 was evaluated by the MTT method. HepG2, HEK293 and A549 cells in logarithmic growth phase were respectively trypsinized into a cell suspension. The cell density was adjusted to 5×10^4 cells/mL. 180 μL per well of the cell suspension was inoculated into a sterile 96-well plate at 37° C., and cultured in an incubator at 5% CO2 for 24 hrs. After the cells were attached to the bottom of the plate, 20 μL of the drug solutions over the concentration gradients were respectively added into each well, and 6 replicate wells were set in parallel. Also, a blank group (group without cells and drug) and a control group (group without drug) were set. The system was incubated in an incubator at 37° C. and 5% CO2 for 24 hrs, and then 20 μL per well of a 5 g/L MTT solution was added and incubated for another 4 hrs. After the incubation was completed, the culture medium in the well was gently aspirated, and 100 μL of DMSO was added to each well. Then the crystal was fully dissolved in a shaker for 10 min at a low speed. After that, the absorbency of each well was measured at OD490 nm in an enzymelinked immunodetector, and the survival rate of cells was calculated.
On the technique in general: Tetrazolium assays rely on reduction of a dye to a coloured formazan, in cell work by metabolically active cells.

For another series, the system named is HEK293 cells. The series is described as follows: In-vitro cytotoxicity by the MTT method, HEK293 cells. The note with it: 24 hrs. As for the experimental part: as §1
Another series deals with HepG2 cells. The series is described as follows: In-vitro cytotoxicity by the MTT method, HepG2 cells. The note with it: 24 hrs. As for the experimental part: as §1
The target of a further series is SARS-CoV-2 3CL^pro (Severe acute respiratory syndrome coronavirus 2 (2019-nCoV) (SARS-CoV-2), UniProt P0DTD1). Put plainly: biochemical. Particulars: for IC50: FRET.
[1] abbreviates: class symbols, read-out: IC50 (nM), inhibitory activity against 3CL^pro.
Setting [2] is: non-linear regression, read-out: IC50 against 3CL^pro.

Like-named read-outs stand apart in the source and are kept apart here.

What is called IC50 is the midpoint of a concentration-inhibition curve. In the case of `Cn1cc2cc(/N=c3\[nH]c(=O)n(Cc4nnn[nH]4)c(=O)n3Cc3cc(F)c(F)cc3F)c(Cl)cc2n1` [Compound 1], the “Survival rate of A549 cells” value in the series with A549 cells (1.5625 nM) was found to be 98.18%; with A549 cells (3.125 nM), 98.39%; with A549 cells (6.25 nM), 98.23%; in the series with A549 cells (12.5 nM), 96.93%; in the series on A549 cells (25 nM), 96.16%; in the series on A549 cells (50 nM) it was 96.33%. Also, the “Survival rate of A549 cells” value in the series on A549 cells (100 nM) was determined as 95.75%; in the series with A549 cells (200 nM), 93.23%; in the series with A549 cells (400 nM), 92.19%. Also, the “Survival rate of HEK293 cells” value in the series on HEK293 cells (1.5625 nM) came to 95.07%; in the series with HEK293 cells (3.125 nM), 95.62%; in the series on HEK293 cells (6.25 nM), 93.10%; with HEK293 cells (12.5 nM), 90.50%; with HEK293 cells (25 nM) it was 88.23%; in the series with HEK293 cells (50 nM) it was 87.10%. The “Survival rate of HEK293 cells” value in the series with HEK293 cells (100 nM) came to 82.87%; with HEK293 cells (200 nM), 82.56%; in the series on HEK293 cells (400 nM), 80.83%. The “Survival rate of HepG2 cells” value with HepG2 cells (1.5625 nM) was determined as 97.17%; with HepG2 cells (3.125 nM), 96.73%; in the series with HepG2 cells (6.25 nM) it was 95.83%; in the series with HepG2 cells (12.5 nM), 93.62%; with HepG2 cells (25 nM), 90.15%; in the series on HepG2 cells (50 nM) it was 89.09%. The “Survival rate of HepG2 cells” value with HepG2 cells (100 nM) worked out at 85.37%; in the series with HepG2 cells (200 nM) it was 84.76%; in the series on HepG2 cells (400 nM) it was 82.33%. For the same compound, the IC50 at SARS-CoV-2 3CL^pro (setting [1]) was under 200 nM; at SARS-CoV-2 3CL^pro (setting [2]), 120 nM. Besides, the “inhibition percentage of 3CL^pro” value worked out at 0.86% on SARS-CoV-2 3CL^pro (concentration 0.1 nM); 2.12% against SARS-CoV-2 3CL^pro (concentration 1 nM); 7.77% against SARS-CoV-2 3CL^pro (concentration 5 nM); 9.75% against SARS-CoV-2 3CL^pro (concentration 10 nM); 14.30% at SARS-CoV-2 3CL^pro (concentration 20 nM); 18.23% at SARS-CoV-2 3CL^pro (concentration 30 nM). In addition, the “inhibition percentage of 3CL^pro” value turned out to be 21.89% against SARS-CoV-2 3CL^pro (concentration 50 nM), 58.21% against SARS-CoV-2 3CL^pro (concentration 100 nM), 73.44% at SARS-CoV-2 3CL^pro (concentration 500 nM) and 89.12% against SARS-CoV-2 3CL^pro (concentration 1000 nM).

As for `Cn1cc2cc(/N=c3\[nH]c(=O)n(Cc4nnn[nH]4)c(=O)n3Cc3ccccc3)c(Cl)cc2n1` [Compound 2, (E)-3-((1H-tetrazol-5-yl)methyl)-1-benzyl-6-((6-chloro-2-methyl-2H-indazol-5-yl)imino)-1,3,5-triazin-2,4-dione], on SARS-CoV-2 3CL^pro (setting [1]), the half-inhibitory concentration (IC50) is 500 to 1000 nM.

With `Cc1ccc(Cn2c(Nc3cc4cn(C)nc4cc3Cl)nc(=O)n(Cc3nnn[nH]3)c2=O)cc1` [Compound 3, (E)-3-(1H-tetrazol-5-yl)methyl)-6-(6-chloro-2-methyl-2H-indazol-5-yl)imino)-1-(4-methylbenzyl)-1,3,5-triazin-2,4-dione], the 50% inhibitory concentration (IC50) at SARS-CoV-2 3CL^pro (setting [1]) lay in the range of 500 to 1000 nM.

`Cn1cc2cc(/N=c3\[nH]c(=O)n(Cc4nnn[nH]4)c(=O)n3Cc3ccc(C(C)(C)C)cc3)c(Cl)cc2n1` [Compound 4]: the IC50 on SARS-CoV-2 3CL^pro (setting [1]) fell in the range of 500 to 1000 nM.

For the compound `Cn1cc2cc(/N=c3\[nH]c(=O)n(Cc4nnn[nH]4)c(=O)n3Cc3ccc(Cl)cc3)c(Cl)cc2n1` [Compound 5], the IC50 at SARS-CoV-2 3CL^pro (setting [1]) lay in the range of 200 to 500 nM.

In the case of `Cn1cc2cc(/N=c3\[nH]c(=O)n(Cc4nnn[nH]4)c(=O)n3Cc3ccc(Br)cc3)c(Cl)cc2n1` [Compound 6], at SARS-CoV-2 3CL^pro (setting [1]), the half-maximal inhibitory concentration (IC50) fell in the range of 200 to 500 nM.

For the compound `Cn1cc2cc(Nc3nc(=O)n(Cc4nnn[nH]4)c(=O)n3Cc3ccc(-c4ccccc4)cc3)c(Cl)cc2n1` [Compound 7, (E)-3-((1H-tetrazol-5-yl)methyl)-1-([1,1-biphenyl]-4-ylmethyl)-6-((6-chloro-2-methyl-2H-indazol-5-yl)imino)-1,3,5-triazin-2,4-dione], the 50% inhibitory concentration (IC50) on SARS-CoV-2 3CL^pro (setting [1]) is over 1000 nM.

In the case of `Cn1cc2cc(Nc3nc(=O)n(Cc4nnn[nH]4)c(=O)n3Cc3ccc(C(F)(F)F)cc3)c(Cl)cc2n1` [Compound 8, (E)-3-(1H-tetrazol-5-yl)methyl)-6-(6-chloro-2-methyl-2H-indazol-5-yl)imino)-1-(4-(trifluoromethyl)benzyl)-1,3,5-triazin-2,4-dione], at SARS-CoV-2 3CL^pro (setting [1]), the concentration for half-maximal inhibition (IC50) lay within 500 to 1000 nM.

On to `Cn1cc2cc(/N=c3\[nH]c(=O)n(Cc4nnn[nH]4)c(=O)n3Cc3ccc([N+](=O)[O-])cc3)c(Cl)cc2n1` [Compound 9], for which the IC50 at SARS-CoV-2 3CL^pro (setting [1]) is over 1000 nM.

For the compound `COc1ccc(Cn2c(=O)n(Cc3nnn[nH]3)c(=O)[nH]/c2=N\c2cc3cn(C)nc3cc2Cl)cc1` [Compound 10], the IC50 at SARS-CoV-2 3CL^pro (setting [1]) lay in the range of 200 to 500 nM.

In the case of `Cn1cc2cc(/N=c3\[nH]c(=O)n(Cc4nnn[nH]4)c(=O)n3Cc3ccc(OC(F)(F)F)cc3)c(Cl)cc2n1` [Compound 11], the half-maximal inhibitory concentration (IC50) on SARS-CoV-2 3CL^pro (setting [1]) was 500 to 1000 nM.

In the case of `Cc1cc(C)cc(Cn2c(=O)n(Cc3nnn[nH]3)c(=O)[nH]/c2=N\c2cc3cn(C)nc3cc2Cl)c1` [Compound 13], the half-inhibitory concentration (IC50) at SARS-CoV-2 3CL^pro (setting [1]) lay in the range of 500 to 1000 nM.

For the compound `COc1cc(Cn2c(=O)n(Cc3nnn[nH]3)c(=O)[nH]/c2=N\c2cc3cn(C)nc3cc2Cl)cc(OC)c1` [Compound 14], the concentration for half-maximal inhibition (IC50) on SARS-CoV-2 3CL^pro (setting [1]) was 500 to 1000 nM.

`Cn1cc2cc(/N=c3\[nH]c(=O)n(Cc4nnn[nH]4)c(=O)n3Cc3cc(F)cc(F)c3)c(Cl)cc2n1` [Compound 15]: the IC50 at SARS-CoV-2 3CL^pro (setting [1]) and at SARS-CoV-2 3CL^pro (setting [2]) was under 200 nM each time.

On to `Cn1cc2cc(/N=c3\[nH]c(=O)n(Cc4nnnn4C)c(=O)n3Cc3cc(F)c(F)cc3F)c(Cl)cc2n1` [Compound 16], for which the concentration for half-maximal inhibition (IC50) at SARS-CoV-2 3CL^pro (setting [1]) and at SARS-CoV-2 3CL^pro (setting [2]) was under 200 nM in each case.

Consider `CCn1nnnc1Cn1c(=O)[nH]/c(=N\c2cc3cn(C)nc3cc2Cl)n(Cc2ccc(C(F)(F)F)cc2)c1=O` [Compound 18], for which the IC50 on SARS-CoV-2 3CL^pro (setting [1]) lay in the range of 200 to 500 nM.

Regarding `CCn1nnnc1Cn1c(=O)[nH]/c(=N\c2ccc3nn(C)cc3c2)n(Cc2ccc([N+](=O)[O-])cc2)c1=O` [Compound 19], the IC50 on SARS-CoV-2 3CL^pro (setting [1]) lay in the range of 200 to 500 nM.

`CCn1nnnc1Cn1c(=O)[nH]/c(=N\c2cc3cn(C)nc3cc2Cl)n(Cc2ccc(Cl)cc2)c1=O` [Compound 20]: at SARS-CoV-2 3CL^pro (setting [1]), the half-maximal inhibitory concentration (IC50) fell in the range of 200 to 500 nM.

For `Cn1cc2cc(/N=c3\[nH]c(=O)n(Cc4nnnn4C4CC4)c(=O)n3Cc3cc(F)c(F)cc3F)c(Cl)cc2n1` [Compound 21], the IC50 on SARS-CoV-2 3CL^pro (setting [1]) was 200 to 500 nM.

As to `CC(C)n1nnnc1Cn1c(=O)[nH]/c(=N\c2cc3cn(C)nc3cc2Cl)n(Cc2cc(F)c(F)cc2F)c1=O` [Compound 22], the IC50 on SARS-CoV-2 3CL^pro (setting [1]) fell in the range of 200 to 500 nM.

For the compound `Cn1cc2cc(/N=c3\[nH]c(=O)n(Cc4nnnn4C4CCC4)c(=O)n3Cc3cc(F)c(F)cc3F)c(Cl)cc2n1` [Compound 23], on SARS-CoV-2 3CL^pro (setting [1]), the 50% inhibitory concentration (IC50) lay within 500 to 1000 nM.

On to `CC(C)Cn1nnnc1Cn1c(=O)[nH]/c(=N\c2cc3cn(C)nc3cc2Cl)n(Cc2cc(F)c(F)cc2F)c1=O` [Compound 24], for which the IC50 on SARS-CoV-2 3CL^pro (setting [1]) was over 1000 nM.
